Measured values: article PMC9318133 (International Journal of Molecular Sciences, 2022)

System: fEPSP of CA1 area of mouse hippocampal slice
Test: Electrophysiological recording of fEPSP in hippocampal slices
Assay type: cell-based
Settings: AM-251 2 µM; JWH-175 and JWH-018 both at 1 µM; data not shown
Protocol: Procedures for tissue preparation are the same as those described by Ossato et al., 2016 [45]. In brief, after mouse decapitation, the head was immediately chilled in refrigerated artificial cerebrospinal fluid (aCSF, 0 °C) of the following composition (in mM): NaCl, 126; KCl, 2; KH2PO4, 1.25; NaHCO3, 26; MgSO4, 2.0; CaCl2, 2.5; d-glucose, 10. After 1 min, the brain was extracted to isolate the hippocampus and then placed in ice-cold artificial cerebrospinal fluid (aCSF). All solutions were saturated with 95% O2/5% CO2. Transverse hippocampal slices (425 μm thick) were cut with a tissue chopper and then placed for almost 90 min in a Haas-style incubation chamber for recovery before recording.
A single slice was transferred into a submerged-type recording chamber (3 mL total volume) and continuously superfused (3.0 mL/min) with warmed (32–33 °C) aCSF. WINLTP 2.10 computer software was used for stimulus triggering, PC recording, and analysis. Synaptic responses of CA1 pyramidal neurons were elicited by electrical stimulation of the Schaffer collateral/commissural pathway. Single stimulation pulses (80 µs duration; 0.05 Hz) were delivered by mean of a concentric bipolar electrode (o.d. 125 μm, FHC, USA) connected to a Grass S11 stimulator driving a PSIU6 constant current stimulus isolation unit. To record the fEPSPs, borosilicate glass electrodes fabricated using a microelectrode puller (P97, Sutter Instruments) and filled with aCSF (1.5 ± 0.5 MΩ), inserted in the distal third of the stratum radiatum and 200–300 µm away from stimulating electrodes, were used. The maximal fEPSPs response was reached by adjusting the recording electrode depth. Recorded potentials were amplified (Axoprobe 1A DC-coupled—Cyberamp 320, Molecular Devices, Sunnyvale, CA, USA) and filtered (5.0 kHz) prior to A/D conversion. Upon 10 min of stable synaptic response, a stimulus–response curve (SRC) was generated as previously described to extrapolate a stimulation intensity evoking 70% of maximal fEPSP, to be used throughout the experiment. […] To investigate whether the vehicle had any effect on synaptic activity, the superfusion inlet was switched to a reservoir containing aCSF plus the amount of vehicle present for the corresponding drug concentration (sham application), before switching to the solution also including the drug, for comparison. All reservoirs and tubing were on glass or Teflon to avoid the capturing of cannabinoids by plastic or silicon parts.
We analyzed data from in vitro recordings as previously described. […] Effect of treatment was considered steady state when stable +/− 5% for 10 min.

## Cc1c(C(=O)NN2CCCCC2)nn(-c2ccc(Cl)cc2Cl)c1-c1ccc(I)cc1 [AM-251, 1-(2,4-dichlorophenyl)-5-(4-iodophenyl)-4-methyl-N-1-piperidinyl-1H-pyrazole-3-carboxamide]
  effect of AM-251 perfusion on the inhibitory effect of JWH-175 and JWH-018 on fEPSP: completely prevented
